In US10407415B2, “Dihydrate of benzothiophene compound or of a salt thereof, and process for producing the same” (OTSUKA PHARMACEUTICAL CO., LTD., priority 2012, dated 2019):

How the values were obtained:
[1] = Measurement of drug residue in muscle; assay type: in vivo; settings: rat, injectable preparation 100 mg/mL (finely ground, mean particle diameter 3.5 μm) intramuscularly injected at 25 mg/kg, dissected 56 days after the injection
Protocol: The dihydrate of the present invention (150 mg) was dispersed to the suspension medium (1 mL) described below, and pulverized using 5 mm zirconia beads (1.2 g, pulverization time: 30 min) while being stirred with a stirrer. The suspension medium used for pulverization was a solution containing 0.832% (w/v) sodium carboxymethylcellulose (CMC-Na), 4.16% (w/v) mannitol, and 0.074% (w/v) sodium dihydrogenphosphatemonohydrate. The pH thereof was adjusted to 7.0 by adding an appropriate amount of sodium hydroxide. The concentration of each preparation was adjusted to 100 mg/mL using this medium.
An anhydride was subjected to pulverization in the same manner to obtain an anhydride (finely ground product) having a mean particle diameter of 3.5 μm. The mean particle diameter was measured using a laser diffraction particle size analyzer (SALD-3000) or SALD-3100, manufactured by Shimadzu Corporation).
Injectable preparations each containing the dihydrate of the present invention (finely ground product, mean particle diameter: 3.5 μm) or an anhydride (finely ground product, mean particle diameter: 3.5 μm) were obtained by the procedure described above.
Each injectable preparation thus obtained was intramuscularly injected into a rat in a dosage of 25 mg/kg. Each injectable preparation was injected into three rats.

[2] = Pharmacokinetics test using a dog (intramuscular injectable preparation); assay type: in vivo; settings: 10 mg/kg calculated as the anhydride
Protocol: Injectable preparations containing the dihydrate of the present invention as an active ingredient were formulated as shown in Table 3. Each of the injectable preparations was injected into the thigh muscle of a dog in such a dosage that 10 mg/kg of active ingredient calculated as the anhydride of the present invention was contained. FIG. 14 is a graph showing the mean blood concentration-time profile after the injection. As is clear from FIG. 14, the sustained release property can be stably maintained for more than 30 days from the injection.

Row | SMILES | The number having residue in muscle (Number having residue/Total) [1] | The number having residue in muscle (Number having residue/Total) ([1]; dihydrate) | time for which the sustained release property is stably maintained (mean blood concentration-time profile, FIG. 14) ([2]; injected into the thigh muscle, Table 3 formulation) | Stimulation at the injection site ([2]; thigh muscle injection, observed 7 days after the injection)
1 | O=c1ccc2ccc(OCCCCN3CCN(c4cccc5sccc45)CC3)cc2[nH]1 [Anhydride, 7-[4-(4-benzo[b]thiophen-4-yl-piperazin-1-yl)butoxy]-1H-quinolin-2-one anhydride, reference compound] | 0/3 | – | – | –
2 | O=c1ccc2ccc(OCCCCN3CCN(c4cccc5sccc45)CC3)cc2[nH]1 [Dihydrate, 7-[4-(4-benzo[b]thiophen-4-yl-piperazin-1-yl)butoxy]-1H-quinolin-2-one dihydrate] | – | 3/3 | more than 30 days | low
